The values that follow come from article PMC4924314, “Vertebrate TFPI-2 C-terminal peptides exert therapeutic applications against Gram-negative infections” (BMC Microbiology, 2016).

For one assay, the system named is E. coli ATCC 25922. The assay can be described thus: Viable count analysis in mouse plasma. The assay is classed as cell-based, Escherichia coli. As to conditions: E. coli ATCC 25922, viable count, mouse plasma (Figure S2). The protocol:
E. coli were grown to mid-exponential phase in Todd-Hewitt (TH). Bacteria were washed and diluted in 10 mM Tris, pH 7.4 either alone or with 20 % human or mouse (BALB/c) citrate-plasma. Bacterial (2 × 10^6 cfu/ml) were incubated in 50 μl, at 37 °C for 1 h with the C-terminal TFPI-2 derived peptides at the indicated concentrations. Serial dilutions of the incubation mixture were plated on TH agar, followed by incubation at 37 °C overnight and cfu determination. Additional file 1: Figure S1. Phylogenetic tree analysis of full-length and reminder protein except C-terminal TFPI-2 from vertebrates. Phylogenetic tree from 72 vertebrate TFPI-2 species was constructed using Neighbour-Joining tree with 1000 bootstrap replications on MEGA6. (PDF 54 kb) Additional file 2: Figure S2. Activities of TFPI-2 C-terminal derived peptides in mouse plasma. (Left) The bactericidal activity of mouse VKG24 peptide was assessed in physiological buffer conditions using viable count analysis. E. coli ATCC 25922 were grown to mid-logarithmic phase and incubated with varying concentrations of peptide. The antimicrobial activity was determined by plating serial dilutions of bacteria on TH agar plates and number of cfu was counted after overnight incubation. (Right) The activated partial thromboplastin time (aPTT) was determined by addition of buffer or 50 μM of VKG24 peptide to mouse plasma. […]

Assay [1] relates to intrinsic pathway of coagulation. Put plainly: Activated partial thromboplastin time (aPTT) in mouse plasma. The class given is biochemical. To be noted: peptide 50 μM, n = 3 (Figure S2). The protocol:
All clotting times were analyzed using a coagulometer (Amelung, Lemgo, Germany). For determination of activated partial thromboplastin time (aPTT), 100 μl of a kaolin-containing solution (Technoclone) was added to the 100 μl of fresh citrate plasma or citrate plasma peptide mix and incubated at 37 °C for 200 s before clot formation was initiated by adding 100 μl of 30 mM fresh CaCl2 solution. For detection of prothrombin time (PT, thromboplastin reagent (Trinity Biotech)) 100 μl of fresh citrate plasma were incubated 60 s at 37 °C before clot formation was initiated by adding 100 μl of clotting reagent. Additional file 1: Figure S1. Phylogenetic tree analysis of full-length and reminder protein except C-terminal TFPI-2 from vertebrates. Phylogenetic tree from 72 vertebrate TFPI-2 species was constructed using Neighbour-Joining tree with 1000 bootstrap replications on MEGA6. (PDF 54 kb) Additional file 2: Figure S2. […] (Left) The bactericidal activity of mouse VKG24 peptide was assessed in physiological buffer conditions using viable count analysis. […] The antimicrobial activity was determined by plating serial dilutions of bacteria on TH agar plates and number of cfu was counted after overnight incubation. (Right) The activated partial thromboplastin time (aPTT) was determined by addition of buffer or 50 μM of VKG24 peptide to mouse plasma. […]

The subject of assay [2] is E. coli LPS-induced septic shock in Balb/c mice. Put plainly: LPS-induced septic shock mouse model (survival, weight). The assay is classed as in vivo. As to conditions: 10 mg/kg E. coli LPS i.p. As for the experimental part: (§1) Fig. 6 Treatment of LPS-induced septic shock mice with a mouse TFPI-2 derived peptide. Septic shock in Balb/c mice was induced by i.p. injection of 10 mg/kg E. coli LPS. […] Statistical comparisons of survival curves were performed using the Mantel-Cox’s test. ***P ≤ 0.0003. b Weight was determined daily. c Clotting times of aPTT and PT was measured in citrate plasma 24 h after LPS injection (n = 8). d The indicated cytokines were analyzed in plasma 24 h after LPS injection (n = 8). Statistical analysis for C-D, one-way ANOVA with Tukey’s multiple comparisons post-test was used. **P ≤ 0.003, ****P ≤ 0.0001
(§2) Male/female balb/c mice (8 weeks, 21 ± 5 g) were injected intraperitoneally (i.p.) with 10 mg E. coli 0111:B4 LPS (Sigma) per kg of body weight. Thirty minutes after LPS injection, 0.5 mg VKG24 (25 mg/kg) or PBS buffer alone (control) were injected i.p. into the mice. Status and weight were monitored daily for seven days. Mice where immobilization and/or shaking was observed were euthanized by an overdose of isoflurane (Abbott) and counted as non-survivors. For determination of cytokine levels in mouse plasma, animals were sacrificed 24 h after LPS injection. The blood was collected immediately by cardiac puncture into citrate tubes.

Assay [3] has as its system intrinsic and extrinsic coagulation pathways. Put plainly: Clotting times (aPTT, PT) in citrate plasma of LPS-injected mice. The assay is classed as in vivo, mouse. To be noted: peptide ~25 mg/kg i.p. The protocol: Fig. 6 Treatment of LPS-induced septic shock mice with a mouse TFPI-2 derived peptide. […] Statistical analysis for C-D, one-way ANOVA with Tukey’s multiple comparisons post-test was used. **P ≤ 0.003, ****P ≤ 0.0001
as §2
All clotting times were analyzed using a coagulometer (Amelung, Lemgo, Germany). For determination of activated partial thromboplastin time (aPTT), 100 μl of a kaolin-containing solution (Technoclone) was added to the 100 μl of fresh citrate plasma or citrate plasma peptide mix and incubated at 37 °C for 200 s before clot formation was initiated by adding 100 μl of 30 mM fresh CaCl2 solution. For detection of prothrombin time (PT, thromboplastin reagent (Trinity Biotech)) 100 μl of fresh citrate plasma were incubated 60 s at 37 °C before clot formation was initiated by adding 100 μl of clotting reagent.

Assay [4] deals with IL-6, MCP-1, IFN-γ, IL-10. Put plainly: Cytokine assay in plasma of LPS-injected mice. The class given is in vivo, mouse. As to conditions: 24 h after LPS injection, peptide ~25 mg/kg i.p., n = 8. As for the experimental part:
as §1, §2
Cytokines IL-6, IL-10, MCP-1, INF-γ and TNF-α were measured in plasma from mice infected by E. coli LPS (with or without peptide treatment) using the Cytometric bead array; mouse inflammation kit (Becton Dickinson AB) according to the manufacturer’s instructions. All plasma samples were stored at −80 °C before the analysis.

Setting [5] is: citrate plasma 24 h after LPS injection, n = 8.

“VKGWKKPKRWKIGDFLPRFWKHLS [VKG24, mouse TFPI-2 C-terminal derived peptide (O35536)]”: the “antimicrobial activity in mouse plasma” value with E. coli ATCC 25922 is on record as “potent”. For the same sequence, the “anti-coagulant activity in mouse plasma (aPTT)” value in assay [1] is listed as “potent”. The survival rate result in assay [2] (peptide 0.5 mg/mouse (~25 mg/kg) i.p. 30 min after LPS, monitored 7 days) is given as “dramatic improvement”. The body weight result in assay [2] (peptide ~25 mg/kg i.p. 30 min after LPS, weight determined daily) was “started regaining their weight from day three”. In addition, in assay [3] (setting [5]), the “coagulation PT time” value was “significantly decreased” and the “coagulation aPTT time” value is listed as “significantly decreased”. Further, the “coagulation aPTT and PT levels in survivors” value in assay [3] (survivors) is recorded as “completely normalized”. Also, in assay [4], the IFN-γ in plasma result is listed as “significant reduction”, the IL-6 in plasma result is on record as “significant reduction”, the IL-10 in plasma result was “significant reduction” and the MCP-1 in plasma entry was “significant reduction”.
